Data: US4804664A, “Method and pharmaceutical preparation for treating chronic obstructive airway disease and cardiac disease, and intermediates for the preparation of therapeutically active xanthine derivatives” (priority 1978, dated 1989)
Entries after “also recorded” stand apart in the source; their conditions may differ. Where two headings read alike, the source gives them in different places.

Legend:
Guinea-Pig heart = experiment: Isolated Guinea-Pig Hearts (Langendorff), chronotropic and inotropic potency; conditions: relative to theophylline (= 1); for Guinea-Pig heart Potency ratios of theophylline, chronotrop: cardioacceleration; for Guinea-Pig heart Potency ratios of theophylline, inotrop: inotropic
Experimental: From the bled guinea-pigs, the hearts were immediately removed and perfused with oxygenated Krebs solution at 37° according to Langendorff. The heart was mounted in a thermostatically controlled organ bath (25 ml) containing Krebs solution. A saline-filled, open-end polyethylene catheter was inserted into the right ventricle through the pulmonary artery. The catheter was fixed to the pulmonary artery by a ligature just above the valvular plane. It was connected to a pressure transduser (P23 AC), making it possible to record changes in intraventricular pressure. From these, the contraction frequency was obtained. Drugs were given as single bolus injections into the perfusion solution.
Potency ratios for relaxing effects on isolated bronchial smooth muscle, for cardioacceleration and for i.v. acute toxicity are illustrated. The relation between therapeutic ratios for theophylline and each compound is also calculated (column to the right).

in vivo [1] = conditions: mouse, in vivo, po, mice, p.o.
mice [2] = experiment: in vivo; conditions: theophylline relative to compound, Table 2
in vivo [3] = conditions: mouse, in vivo, mice; for LD50 at 336 h: iv, i.v.; for selectivity ratio at 336 h: read-out: Ratio LD50 p.o. / LD50 i.v.
Experimental: (§1) Male NMRI mice, weighing 20-26 g, starved for 8 hr. were used. The compounds, dissolved in 0.5M NaOH and 0.85% NaCl-solution (pH 10.6-12.1) were administered as follows:
(§2) (a) intravenously, 0.1 ml/10 g at an injection rate of 0.3 ml per minute
(§3) At least seven dose levels, doses increasing in a geometric progression with a factor 1.2, were examined. Each dose was given to 5 animals. […] The position of extremities in dead animals indicated whether they had died in convulsions or not. The LD50 values±standard error were calculated using probit analysis.

mice [4] = experiment: in vivo; conditions: for Ratio i.v. LD50 TA/(.): theophylline relative to compound, Table 2; for tonic convulsions: lethal doses
Experimental: as §1, §2, §3

[5] = theophylline therapy, cited from earlier work
[6] = probit analysis, read-out: LD50 ± SE p.o.
[7] = probit analysis, read-out: LD50 ± SE i.v.

Compound	Guinea-Pig heart Potency ratios of theophylline, chronotrop (Guinea-Pig heart)	Guinea-Pig heart Potency ratios of theophylline, inotrop (Guinea-Pig heart)	LD50 at 336 h (in vivo [1]; [6])	LD50 at 336 h (in vivo [1]; read-out: LD50 p.o.)	Ratio p.o. LD50 TA/(.) (mice [2])	LD50 at 336 h (in vivo [3]; [7])	LD50 at 336 h (in vivo [3]; read-out: LD50 i.v.)	selectivity ratio at 336 h (in vivo [3])	Ratio i.v. LD50 TA/(.) (mice [4])	tonic convulsions (mice [4])	major therapeutic effects ([5]; COAD and cardiac disease)	toxic side-effects [5]
CCCCn1c(=O)[nH]c(=O)c2[nH]cnc21 [D 4031, 3-butyl-3,7-dihydro-1H-purine-2,6-dione]	5	2	408 ± 10.7 mg/kg	1950 µmol/kg	1.14	158 ± 8.8 mg/kg	750 µmol/kg	2.6	1.35	without convulsive effects	–	–
CCCn1c(=O)[nH]c(=O)c2[nH]cnc21 [D 4028, 3,7-dihydro-3-propyl-1H-purine-2,6-dione]	2	2.5	501 ± 54 mg/kg	2550 µmol/kg	0.87	157 ± 7.1 mg/kg	810 µmol/kg	3.1	1.24	without convulsive effects	–	–
Cn1c(=O)c2[nH]cnc2n(C)c1=O [Theophylline, reference compound]	–	–	–	–	–	–	–	–	–	in lethal doses produced tonic convulsions; also recorded: convulsions which theophylline does	relax bronchial smooth muscle and stimulate heart muscle	most common are nausea and gastric distress, most serious are convulsions, which may lead to death
CC(C)Cn1c(=O)[nH]c(=O)c2[nH]cnc21 [D 4030, 3,7-dihydro-3-(2-methylpropyl)-1H-purine-2,6-dione]	5	2	304 ± 26 mg/kg	1450 µmol/kg	1.53	109 ± 5.9 mg/kg	520 µmol/kg	2.8	1.94	without convulsive effects	–	–
